Consider 5 compounds from patent US8207122B2, “Anti-cancer bioactive peptides isolated from crude venom of Xinjiang Lycosa singoriensis” (Xiamen Bioway Biotech Co., Limited, priority 2007, dated 2012).

Data set [1] is described as follows: Toxicity on a whole animal, subcutaneous injection. It counts as in vivo. The settings on record: 200 mg/Kg body weight, mice, within 48 hours.
In the next data set the test system is Hela cells. Kind of data set: Comparison of inhibitory activity of peptides on Hela cells. The settings on record: for activity compared with SEQ ID NO. 1: anti-cancer activity, in words. It is filed as cell-based. The procedure:
The above-mentioned experiments have verified the peptide has strong inhibition on the growth of cancer cells and solid tumors. In order to study the inhibition degree of difference sequences (SEQ. Nos. 1-5) of the peptide on tumor cells, comparative experiments of measuring the activity of Hela cells were conducted (as shown in FIG. 7).
Nos. 1-4, at a concentration of 40 μmol/L, the inhibition rate on Hela cells was about 90%, at 20 μmol/L, about 50%, at 5 μmol/L, only 2%. Thus, the inhibition degree of SEQ. Nos. 1-4 on Hela cells was basically equal. However, for SEQ. No. 5, at a concentration of 40 μmol/L, 20 μmol/L, and 5 μmol/L, the inhibition rate on Hela cells was more than 80%. Compared with that of SEQ. Nos. 1-4, the inhibition degree of SEQ. No. 5 had been increased by about 10 times. No. 1 and SEQ. No. 5 could dissolve 19% and 37% red cells respectively, which meant the hemolytic activity of SEQ. No. 5 was […] than that of SEQ. No. 1.

Where a SMILES comes first, the peptide text is derived from it. Where no end group is shown, it is not given here.

For the compound `CC[C@H](C)[C@H](NC(=O)[C@H](Cc1ccccc1)NC(=O)[C@H](CCCCN)NC(=O)[C@H](C)NC(=O)[C@@H](NC(=O)[C@H](CO)NC(=O)[C@H](CCCCN)NC(=O)[C@H](CCSC)NC(=O)[C@H](C)NC(=O)[C@H](CCCCN)NC(=O)[C@H](Cc1ccccc1)NC(=O)[C@H](Cc1c[nH]c2ccccc12)NC(=O)CNC(=O)[C@H](CCCCN)NC(=O)[C@@H](N)CCCNC(=N)N)[C@@H](C)CC)C(=O)N[C@@H](C)C(=O)N[C@@H](CCCCN)C(=O)N[C@@H](CCC(=O)O)C(=O)N[C@@H](CCCCN)C(=O)N[C@@H](CC(C)C)C(=O)N[C@@H](CCCCN)C(=O)N[C@@H](CCC(=O)O)C(=O)N[C@@H](Cc1c[nH]cn1)C(=O)N[C@@H](CC(C)C)C(N)=O` [SEQ. No. 1] (H-RKGWFKAMKSIAKFIAKEKLKEHL-NH2), the toxic reaction result in data set [1] is “no obvious toxic reaction was observed”.
Turning to `CC[C@H](C)[C@H](NC(=O)[C@H](Cc1ccccc1)NC(=O)[C@H](CCCCN)NC(=O)[C@H](C)NC(=O)[C@@H](NC(=O)[C@H](CO)NC(=O)[C@H](CCCCN)NC(=O)[C@H](CCSC)NC(=O)[C@H](C)NC(=O)[C@@H](N)CCCCN)[C@@H](C)CC)C(=O)N[C@@H](C)C(=O)N[C@@H](CCCCN)C(N)=O` [SEQ. No. 5, Lys Ala Met Lys Ser Ile Ala Lys Phe Ile Ala Lys-NH2] (H-KAMKSIAKFIAK-NH2), the “inhibition rate on Hela cells” value with Hela cells (5 μmol/L), in the data set with Hela cells (20 μmol/L) and with Hela cells (40 μmol/L) was “more than 80%” throughout.
Take “Lys Gly Trp Phe Lys Ala Met Lys Ser Ile Ala Lys Phe Ile Ala Lys Glu Lys Leu Lys Glu His Leu-NH2 (KGWFKAMKSIAKFIAKEKLKEHL-NH2) [SEQ ID NO. 3]”: the “activity compared with SEQ ID NO. 1” value in the data set on Hela cells is given as “same activity”.
Still for that read-out and setting: for “Lys Gly Trp Phe Lys Ala Met Lys Ser Ile Ala Lys Phe Ile Ala Lys Glu Lys Met Lys Glu His Leu-NH2 (KGWFKAMKSIAKFIAKEKMKEHL-NH2; listed as Lycosa singoriensis) [SEQ ID NO. 2]” the value was “same activity”; for WFKAMKSIAKFIAKEKLK [SEQ ID NO. 4], “same activity”.
